# Test results: ChEMBL document CHEMBL3611972, “Leishmanicidal, antiproteolytic, and mutagenic evaluation of alkyltriazoles and alkylphosphocholines” (Eur J Med Chem, 2015)
# Legend:
# Salmonella typhimurium [1] = assay: Mutagenicity in Salmonella typhimurium TA102 assessed as mutagenicity index at 150.98 uM/plate incubated for 90 mins at 37 degC in absence of liver S9 fractions by Ames test relative to untreated control; format: toxicity, organism-based; settings: salmonella enterica subsp. enterica serovar typhimurium, 1.5 h
# Salmonella typhimurium [2] = assay: Mutagenicity in Salmonella typhimurium TA98 assessed as mutagenicity index at 150.98 uM/plate incubated for 90 mins at 37 degC in absence of liver S9 fractions by Ames test relative to untreated control; format: toxicity, organism-based; settings: salmonella enterica subsp. enterica serovar typhimurium, 1.5 h
# Salmonella typhimurium [3] = assay: Mutagenicity in Salmonella typhimurium TA97a assessed as mutagenicity index at 150.98 uM/plate incubated for 90 mins at 37 degC in absence of liver S9 fractions by Ames test relative to untreated control; format: toxicity, organism-based; settings: salmonella enterica subsp. enterica serovar typhimurium, 1.5 h
# Salmonella typhimurium [4] = assay: Mutagenicity in Salmonella typhimurium TA102 assessed as mutagenicity index at 435.85 uM/plate incubated for 90 mins at 37 degC in absence of liver S9 fractions by Ames test relative to untreated control; format: toxicity, organism-based; settings: salmonella enterica subsp. enterica serovar typhimurium, 1.5 h
# Salmonella typhimurium [5] = assay: Mutagenicity in Salmonella typhimurium TA97a assessed as mutagenicity index at 700.00 uM/plate incubated for 90 mins at 37 degC in presence of liver S9 fractions by Ames test relative to untreated control; format: toxicity, organism-based; settings: salmonella enterica subsp. enterica serovar typhimurium, s9, 1.5 h
# Salmonella typhimurium [6] = assay: Mutagenicity in Salmonella typhimurium TA100 assessed as mutagenicity index at 435.85 uM/plate incubated for 90 mins at 37 degC in absence of liver S9 fractions by Ames test relative to untreated control; format: toxicity, organism-based; settings: salmonella enterica subsp. enterica serovar typhimurium, 1.5 h
# Salmonella typhimurium [7] = assay: Mutagenicity in Salmonella typhimurium TA97a assessed as mutagenicity index at 570.37 uM/plate incubated for 90 mins at 37 degC in presence of liver S9 fractions by Ames test relative to untreated control; format: toxicity, organism-based; settings: salmonella enterica subsp. enterica serovar typhimurium, s9, 1.5 h
# Salmonella typhimurium [8] = assay: Mutagenicity in Salmonella typhimurium TA100 assessed as mutagenicity index at 296.15 uM/plate incubated for 90 mins at 37 degC in absence of liver S9 fractions by Ames test relative to untreated control; format: toxicity, organism-based; settings: salmonella enterica subsp. enterica serovar typhimurium, 1.5 h
# Salmonella typhimurium [9] = assay: Mutagenicity in Salmonella typhimurium TA102 assessed as mutagenicity index at 150.98 uM/plate incubated for 90 mins at 37 degC in presence of liver S9 fractions by Ames test relative to untreated control; format: toxicity, organism-based; settings: salmonella enterica subsp. enterica serovar typhimurium, s9, 1.5 h
# Salmonella typhimurium [10] = assay: Mutagenicity in Salmonella typhimurium TA102 assessed as mutagenicity index at 296.15 uM/plate incubated for 90 mins at 37 degC in presence of liver S9 fractions by Ames test relative to untreated control; format: toxicity, organism-based; settings: salmonella enterica subsp. enterica serovar typhimurium, s9, 1.5 h
# Salmonella typhimurium [11] = assay: Mutagenicity in Salmonella typhimurium TA102 assessed as mutagenicity index at 700.00 uM/plate incubated for 90 mins at 37 degC in presence of liver S9 fractions by Ames test relative to untreated control; format: toxicity, organism-based; settings: salmonella enterica subsp. enterica serovar typhimurium, s9, 1.5 h
# Salmonella typhimurium [12] = assay: Mutagenicity in Salmonella typhimurium TA98 assessed as mutagenicity index at 435.85 uM/plate incubated for 90 mins at 37 degC in presence of liver S9 fractions by Ames test relative to untreated control; format: toxicity, organism-based; settings: salmonella enterica subsp. enterica serovar typhimurium, s9, 1.5 h
# Salmonella typhimurium [13] = assay: Mutagenicity in Salmonella typhimurium TA100 assessed as mutagenicity index at 296.15 uM/plate incubated for 90 mins at 37 degC in presence of liver S9 fractions by Ames test relative to untreated control; format: toxicity, organism-based; settings: salmonella enterica subsp. enterica serovar typhimurium, s9, 1.5 h
# [14] = Mutagenicity in CHOK1 cells assessed as induction of chromosomal DNA mutation by measuring micronuclei level at 6.41 to 25.63 incubated for 3 hrs by cytokinesis-block micronucleus assay; format: toxicity, cell-based, Cricetulus griseus; settings: chinese hamster, cho-k1, 3 h
# Salmonella typhimurium [15] = assay: Mutagenicity in Salmonella typhimurium TA100 assessed as mutagenicity index at 616.38 uM/plate incubated for 90 mins at 37 degC in presence of liver S9 fractions by Ames test relative to control; format: toxicity, organism-based; settings: salmonella enterica subsp. enterica serovar typhimurium, s9, 1.5 h
# Salmonella typhimurium [16] = assay: Mutagenicity in Salmonella typhimurium TA102 assessed as mutagenicity index at 905.66 uM/plate incubated for 90 mins at 37 degC in absence of liver S9 fractions by Ames test relative to control; format: toxicity, organism-based; settings: salmonella enterica subsp. enterica serovar typhimurium, 1.5 h
# [17] = Mutagenicity in CHOK1 cells assessed as induction of chromosomal DNA mutation by measuring micronuclei level at 14.51 to 58.04 incubated for 3 hrs by cytokinesis-block micronucleus assay; format: toxicity, cell-based, Cricetulus griseus; settings: chinese hamster, cho-k1, 3 h
# Salmonella typhimurium [18] = assay: Mutagenicity in Salmonella typhimurium TA102 assessed as mutagenicity index at 1454.55 uM/plate incubated for 90 mins at 37 degC in presence of liver S9 fractions by Ames test relative to control; format: toxicity, organism-based; settings: salmonella enterica subsp. enterica serovar typhimurium, s9, 1.5 h
# Salmonella typhimurium [19] = assay: Mutagenicity in Salmonella typhimurium TA98 assessed as mutagenicity index at 905.66 uM/plate incubated for 90 mins at 37 degC in absence of liver S9 fractions by Ames test relative to control; format: toxicity, organism-based; settings: salmonella enterica subsp. enterica serovar typhimurium, 1.5 h
# Salmonella typhimurium [20] = assay: Mutagenicity in Salmonella typhimurium TA100 assessed as mutagenicity index at 313.73 uM/plate incubated for 90 mins at 37 degC in presence of liver S9 fractions by Ames test relative to control; format: toxicity, organism-based; settings: salmonella enterica subsp. enterica serovar typhimurium, s9, 1.5 h
# Salmonella typhimurium [21] = assay: Mutagenicity in Salmonella typhimurium TA102 assessed as mutagenicity index at 1185.19 uM/plate incubated for 90 mins at 37 degC in presence of liver S9 fractions by Ames test relative to control; format: toxicity, organism-based; settings: salmonella enterica subsp. enterica serovar typhimurium, s9, 1.5 h
# Salmonella typhimurium [22] = assay: Mutagenicity in Salmonella typhimurium TA100 assessed as mutagenicity index at 1185.19 uM/plate incubated for 90 mins at 37 degC in absence of liver S9 fractions by Ames test relative to control; format: toxicity, organism-based; settings: salmonella enterica subsp. enterica serovar typhimurium, 1.5 h
# Salmonella typhimurium [23] = assay: Mutagenicity in Salmonella typhimurium TA97a assessed as mutagenicity index at 313.73 uM/plate incubated for 90 mins at 37 degC in absence of liver S9 fractions by Ames test relative to control; format: toxicity, organism-based; settings: salmonella enterica subsp. enterica serovar typhimurium, 1.5 h
# Salmonella typhimurium [24] = assay: Mutagenicity in Salmonella typhimurium TA98 assessed as mutagenicity index at 905.66 uM/plate incubated for 90 mins at 37 degC in presence of liver S9 fractions by Ames test relative to control; format: toxicity, organism-based; settings: salmonella enterica subsp. enterica serovar typhimurium, s9, 1.5 h
# Salmonella typhimurium [25] = assay: Mutagenicity in Salmonella typhimurium TA102 assessed as mutagenicity index at 313.73 uM/plate incubated for 90 mins at 37 degC in presence of liver S9 fractions by Ames test relative to control; format: toxicity, organism-based; settings: salmonella enterica subsp. enterica serovar typhimurium, s9, 1.5 h
# Salmonella typhimurium [26] = assay: Mutagenicity in Salmonella typhimurium TA100 assessed as mutagenicity index at 1454.55 uM/plate incubated for 90 mins at 37 degC in presence of liver S9 fractions by Ames test relative to control; format: toxicity, organism-based; settings: salmonella enterica subsp. enterica serovar typhimurium, s9, 1.5 h
# Salmonella typhimurium [27] = assay: Mutagenicity in Salmonella typhimurium TA102 assessed as mutagenicity index at 905.66 uM/plate incubated for 90 mins at 37 degC in presence of liver S9 fractions by Ames test relative to control; format: toxicity, organism-based; settings: salmonella enterica subsp. enterica serovar typhimurium, s9, 1.5 h
# Salmonella typhimurium [28] = assay: Mutagenicity in Salmonella typhimurium TA102 assessed as mutagenicity index at 1454.55 uM/plate incubated for 90 mins at 37 degC in absence of liver S9 fractions by Ames test relative to control; format: toxicity, organism-based; settings: salmonella enterica subsp. enterica serovar typhimurium, 1.5 h
# Salmonella typhimurium [29] = assay: Mutagenicity in Salmonella typhimurium TA102 assessed as mutagenicity index at 616.38 uM/plate incubated for 90 mins at 37 degC in presence of liver S9 fractions by Ames test relative to control; format: toxicity, organism-based; settings: salmonella enterica subsp. enterica serovar typhimurium, s9, 1.5 h
# Salmonella typhimurium [30] = assay: Mutagenicity in Salmonella typhimurium TA102 assessed as mutagenicity index at 616.38 uM/plate incubated for 90 mins at 37 degC in absence of liver S9 fractions by Ames test relative to control; format: toxicity, organism-based; settings: salmonella enterica subsp. enterica serovar typhimurium, 1.5 h
# Salmonella typhimurium [31] = assay: Mutagenicity in Salmonella typhimurium TA97a assessed as mutagenicity index at 1185.19 uM/plate incubated for 90 mins at 37 degC in absence of liver S9 fractions by Ames test relative to control; format: toxicity, organism-based; settings: salmonella enterica subsp. enterica serovar typhimurium, 1.5 h
structure (smiles),measurement,setting,value
CS(=O)(=O)OCCCCCCCCCCCCn1cc(CCCO)nn1,Activity_index,Salmonella typhimurium [1],1.1
same,Activity_index,Salmonella typhimurium [2],1
same,Activity_index,Salmonella typhimurium [3],1.3
same,Activity_index,Salmonella typhimurium [4],0.9
same,Activity_index,Salmonella typhimurium [5],0.8
same,Activity_index,Salmonella typhimurium [6],1.2
same,Activity_index,Salmonella typhimurium [7],1
same,Activity_index,Salmonella typhimurium [8],1.3
same,Activity_index,Salmonella typhimurium [9],1.1
same,Activity_index,Salmonella typhimurium [10],1.3
same,Activity_index,Salmonella typhimurium [11],1.4
same,Activity_index,Salmonella typhimurium [12],1.1
same,Activity_index,Salmonella typhimurium [13],0.9
same,Activity,[14],Non-toxic
CCOC(=O)c1cn(CCCCCCCCCOS(C)(=O)=O)nn1,Activity_index,Salmonella typhimurium [15],1
same,Activity_index,Salmonella typhimurium [16],0.9
same,Activity,[17],Non-toxic
same,Activity_index,Salmonella typhimurium [18],1.2
same,Activity_index,Salmonella typhimurium [19],1.2
same,Activity_index,Salmonella typhimurium [20],0.9
same,Activity_index,Salmonella typhimurium [21],1.4
same,Activity_index,Salmonella typhimurium [22],1.3
same,Activity_index,Salmonella typhimurium [23],1.3
same,Activity_index,Salmonella typhimurium [24],1
same,Activity_index,Salmonella typhimurium [25],1.4
same,Activity_index,Salmonella typhimurium [26],0.9
same,Activity_index,Salmonella typhimurium [27],1.3
same,Activity_index,Salmonella typhimurium [28],1.1
same,Activity_index,Salmonella typhimurium [29],1.7
same,Activity_index,Salmonella typhimurium [30],1.1
same,Activity_index,Salmonella typhimurium [31],1.3
